The values below come from patent US20230107216A1, “PANTETHEINE DERIVATIVES AND USES THEREOF” (Comet Therapeutics, Inc., priority 2018, published 2023).

This assay concerns Subnormal activation of pyruvate dehydrogenase complex (PDH) primary fibroblasts GM01503. As to the kind of experiment: NADP+/NADPH (NADP/NADPH-Glo), PDH fibroblasts GM01503. The format is cell-based. As to conditions: Homo sapiens, Fibroblast, PDH GM01503 P10, assay condition A (10 mM glucose, 2 mM L-glutamine, 1 mM pyruvate, 10% FBS), 24h, read-out: Increase in Total NADP+ + NADPH. On the procedure:
Primary adherent fibroblasts were cultured in minimum essential medium (MEM) (Gibco, 25030081) supplemented with 2 mM L-Glutamine (Gibco, 25030081), 15% fetal bovine serum (FBS) (Gibco, 26400044) and 1% penicillin/streptomycin (Gibco, 5140122) at 37° C. and 5% CO2. Cells were collected for either passaging or experiment at ˜70-80% confluence. Cells were obtained by trypsinization and seeded in cell culture microplates either white plate (Thermo Fisher Scientific, 152028) for luminescent measurement or black plate (Thermo Fisher Scientific, 165305) for fluorescent based read out for different assays listed below. Cells were obtained by trypsinization and […] were seeded and allowed to adhere for 16-18 hours to have confluency around 70-80% in the cell well with culture media. After 24 hours prior to measurements (37° C., 5% CO2) media was changed to Dulbecco's Modified Eagle Medium (DMEM, Agilent Seahorse cat #103575-100) with the appropriate supplements as stated below.
Primary fibroblasts assayed were Propionic Acidemia (PA) (GM03590 Coriell Institute for Medical Research, Tsi 6337 Trans-Hit Bio), Methylmalonic Acidemia (MMA) (Tsi 5224 Trans-Hit Bio), Subnormal activation of pyruvate dehydrogenase complex (PDH) (GM01503 Coriell Institute for Medical Research), Very long-chain acyl-CoA dehydrogenase (VLCAD) (GM17475), Leigh Syndrome (LS) (GM03672, GM13411 Coriell Institute for Medical Research), Pyruvate Carboxylase Deficiency (PC) (GM00444 Coriell Institute for Medical Research). 10 μM of Compounds were added for 2 hours in PA, MMA lines and for 24h for the other fibroblast lines.
Assay was performed according to manufacturer instructions (NADP+/NADPH-Glo Assay Promega, G9082). Assay required a plate for total measurement of NADP+/NADPH and a plate for individual measurement of NADP+ or NADPH. For every assay a 12-point standard curve is prepared ranging from 400 nM to 0.625 nM. Media is removed and replaced with 50 μl of PBS for both assays.
For individual NADP+/NADPH measurements, 50 μl of 1% DTAB (Sigma, D5047) (cell lysis reagent) in 0.2N NaOH was added to the plates and 100 μl of lysate was split into two plates with 50 μl each from which ratio of NADP/NADPH can be calculated. 25 μl of 0.4N HCl were added to the NADP+ plates and both NADP+ and NADPH plates were heated at 60° C. for 15 minutes. The acid and heat treatment destroyed NADPH allowing individual NADP+ measurements while heating in basic conditions destroys NADP+ allowing individual NADPH measurement. After 15 minutes plates were allowed to come to room temperature and Trizma base (Sigma, T1699) was added to the NADP+ plates to neutralize the acid and HCl Trizma hydrochloride (Sigma, T2694) was added to the NADPH plates. The NADNADPH glo reagent was prepared by adding 125 μl of NAD cycling substrate, 125 μl of reductase, 125 μl of reductase substrate, 125 μl NAD cycling enzyme to a total of the 25 ml of NAD GLO reagent. 1:1 ratio of total volume of reagent was added to the individual NADP+, NADPH measurements (total 100 μl) and 50 μl were added for the total NAD/NADPH measurements. Luminescence was measured for 30-60 minutes within the linear range.
A total dead cell count was performed as described in Example 817 and only alive cells were used for analysis.
On to `C[C@@H](O)CC(=O)SCCNC(=O)CCNC(=O)[C@H](O)C(C)(C)CO` [Compound 38, S-2-{3-[(R)-2,4-dihydroxy-3,3-dimethylbutyrylamino]propionylamino} ethyl (R)-3-hydroxybutanethioate], for which the activation at 10 µM is not below 10%.

In the case of `C[C@@H](O)CC(=O)CC(=O)SCCNC(=O)CCNC(=O)[C@H](O)C(C)(C)CO` [Compound 42, (2R)-2,4-dihydroxy-N-[2-[(2-[[(5R)-5-hydroxy-3-oxohexanoyl]sulfanyl]ethyl)carbamoyl]ethyl]-3,3-dimethylbutanamide], the activation at 10 µM is not below 10%.

For the compound `CC(=O)OCC(C)(C)[C@@H](O)C(=O)NCCC(=O)NCCSC(=O)CC(=O)CCC(=O)O` [Compound 140, 6-[(2-[3-[(2R)-4-(acetyloxy)-2-hydroxy-3,3-dimethylbutanamido]propanamido]ethyl)sulfanyl]-4,6-dioxohexanoic acid], the activation at 10 µM is not below 10%.

`CCC(=O)CC(=O)SCCNC(=O)CCNC(=O)[C@H](O)C(C)(C)CO` [Compound 382, (2R)-2,4-dihydroxy-3,3-dimethyl-N-[2-([2-[(3-oxopentanoyl)sulfanyl]ethyl]carbamoyl)ethyl]butanamide]: the activation at 10 µM is not below 10%.

On to `COC(=O)CC(C(C)=O)C(=O)SCCNC(=O)CCNC(=O)[C@H](O)C(C)(C)CO` (stereo partly shown) [Compound 410], for which the activation at 10 µM is not below 10%.

As for `CC(=O)SCCNC(=O)CCNC(=O)[C@H](O)C(C)(C)COC(=O)[C@H](C)N` [Compound 502, (3R)-3-[(2-[[2-(acetylsulfanyl)ethyl]carbamoyl]ethyl)carbamoyl]-3-hydroxy-2,2-dimethylpropyl (2S)-2-aminopropanoate], the activation at 10 µM was not below 10%.

For `CC(=O)OCC(C)(C)[C@@H](OC(C)=O)C(=O)NCCC(=O)NCCSC(C)=O` [Compound 1264, (1R)-3-(acetyloxy)-1-[(2-[[2-(acetylsulfanyl)ethyl]carbamoyl]ethyl)carbamoyl]-2,2-dimethylpropyl acetate], the activation at 10 µM was not below 10%.

Take `CC(O)C(C(=O)SCCNC(=O)CCNC(=O)[C@H](O)C(C)(C)CO)C(C)O` (stereo partly drawn) [Compound 1285, (2R)-2,4-dihydroxy-N-[2-[(2-[[3-hydroxy-2-(1-hydroxyethyl)butanoyl]sulfanyl]ethyl)carbamoyl]ethyl]-3,3-dimethylbutanamide]: the activation at 10 µM was not below 10%.

As to `CC(C)(CO)[C@@H](O)C(=O)NCCC(=O)NCCSC(=O)CCCO` [Compound 1304, (2R)-2,4-dihydroxy-N-[2-([2-[(4-hydroxybutanoyl)sulfanyl]ethyl]carbamoyl)ethyl]-3,3-dimethylbutanamide], the activation at 10 µM was not below 10%.

As for `C[C@H](O)CC(=O)CC(=O)SCCNC(=O)CCNC(=O)[C@H](O)C(C)(C)CO` [Compound 1306, (2R)-2,4-dihydroxy-N-[2-[(2-[[(5S)-5-hydroxy-3-oxohexanoyl]sulfanyl]ethyl)carbamoyl]ethyl]-3,3-dimethylbutanamide], the activation at 10 µM was not below 10%.
